# Activity calls are given as the source filed them.
# How the values were obtained:
# Vero [1] = experiment: cells; format: functional, cell-based; conditions: Chlorocebus sabaeus
# Vero [2] = experiment: cells; format: functional; conditions: Chlorocebus sabaeus
# [3] = molecular target: Melanin-concentrating hormone receptor 1 (Homo sapiens, UniProt Q99705); experiment: Late-stage fluorescence-based counterscreen for antagonists of the G-protein coupled receptor 7 (GPR7): cell-based dose response assay to identify antagonists of the melanin-concentrating hormone receptor 1 (MCHR1) Set 5.; format: functional
# Leucine aminopeptidase = molecular target: T1, Leucine aminopeptidase (Plasmodium falciparum 3D7, UniProt Q8IL11); experiment: P. falciparum M17LAP inhibitors, primary screen, biochemical, fluorogenic H-Leu-NHMec substrate, 1536-well (AID 1619); format: functional
# T1 sequence (Q8IL11 whole entry): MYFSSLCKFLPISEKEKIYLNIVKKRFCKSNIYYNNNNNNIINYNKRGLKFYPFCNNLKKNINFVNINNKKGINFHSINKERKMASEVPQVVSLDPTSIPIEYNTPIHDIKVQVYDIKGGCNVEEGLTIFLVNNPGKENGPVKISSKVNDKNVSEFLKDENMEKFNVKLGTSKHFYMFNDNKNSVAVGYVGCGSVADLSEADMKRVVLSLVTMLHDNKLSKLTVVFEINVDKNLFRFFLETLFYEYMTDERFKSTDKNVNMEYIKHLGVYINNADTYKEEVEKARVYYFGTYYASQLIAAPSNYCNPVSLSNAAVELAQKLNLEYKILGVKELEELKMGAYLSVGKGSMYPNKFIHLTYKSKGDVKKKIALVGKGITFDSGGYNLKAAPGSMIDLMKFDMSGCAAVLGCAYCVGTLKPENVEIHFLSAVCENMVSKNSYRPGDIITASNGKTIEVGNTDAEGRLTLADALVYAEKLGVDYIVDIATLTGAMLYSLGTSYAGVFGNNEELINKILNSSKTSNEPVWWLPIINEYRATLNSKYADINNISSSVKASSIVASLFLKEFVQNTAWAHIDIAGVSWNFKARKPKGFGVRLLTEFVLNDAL
# [4] = HEp-2 cell cytotoxicity, dose response, cytotoxicity control for RSV inhibitor project, HTS (AID 2410); format: functional; conditions: human respiratory syncytial virus
# [5] = insulin promoter down-regulators in MIN6 cells, imaging, high-content screening, mouse beta cells (AID 1628); format: functional
# [6] = cytotoxicity in MIN6 insulinoma cells, dose response, cytotoxicity control, cell-based, mouse insulinoma (AID 2122); format: functional;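 further: confirmatory high-throughput counterscreen run to flag cytotoxic compounds; mouse MIN-6 beta cells carrying an insulin promoter eGFP reporter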
# Protein skinhead-1 = molecular target: T2, Protein skinhead-1 (Caenorhabditis elegans, UniProt P34707); format: functional
# T2 sequence (P34707 whole entry): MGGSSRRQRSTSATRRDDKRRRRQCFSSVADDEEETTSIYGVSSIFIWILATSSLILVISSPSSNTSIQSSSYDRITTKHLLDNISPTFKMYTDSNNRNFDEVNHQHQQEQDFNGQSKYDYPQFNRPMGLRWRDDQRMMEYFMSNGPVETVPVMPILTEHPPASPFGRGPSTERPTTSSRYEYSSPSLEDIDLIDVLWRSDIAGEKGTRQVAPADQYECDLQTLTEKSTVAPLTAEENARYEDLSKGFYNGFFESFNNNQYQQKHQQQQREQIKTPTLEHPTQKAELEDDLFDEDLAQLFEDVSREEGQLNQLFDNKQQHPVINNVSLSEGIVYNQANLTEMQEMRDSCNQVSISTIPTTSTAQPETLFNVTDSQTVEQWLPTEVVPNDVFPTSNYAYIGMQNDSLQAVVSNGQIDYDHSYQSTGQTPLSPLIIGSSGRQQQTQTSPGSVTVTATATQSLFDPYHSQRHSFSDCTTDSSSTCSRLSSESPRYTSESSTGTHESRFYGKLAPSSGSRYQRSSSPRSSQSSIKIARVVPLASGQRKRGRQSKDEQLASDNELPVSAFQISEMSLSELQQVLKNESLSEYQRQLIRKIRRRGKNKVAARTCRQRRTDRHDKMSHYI
# [7] = molecular target: Glucose-6-phosphate 1-dehydrogenase (Homo sapiens, UniProt P11413); experiment: human G6PD enzyme inhibitors, dose response, selectivity assay for P. falciparum G6PD inhibitor project, biochemical, fluorescence (AID 504792); format: functional
# cells = format: functional
# [8] = Shn3 3'UTR reporter inhibitors, dose response, cell-based, Clone20 osteoblasts, firefly luciferase, cherry-picked (AID 624132); format: functional;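 further: firefly luciferase luminescence from reporter carrying the Shn3 3'UTR in osteoblasts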
# [9] = control 3'UTR Renilla luciferase suppression, dose response, counter-screen for Shn3 inhibitor project, cell-based, Clone20-Shn3RL, cherry-picked (AID 624133); format: functional
# Protein Wnt-3a = Protein Wnt-3a (Mus musculus, UniProt P27467); experiment: Wnt3a-driven reporter signaling inhibition, dose response, selectivity assay for Gli-SUFU antagonist project, Wnt-LIGHT cells, luminescence (AID 651570); format: functional; conditions: read-out: IC50_Mean;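 further: Wnt-LIGHT reporter cells stimulated with conditioned medium from Wnt3a-producing cells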
# CAAX prenyl protease 2 [10] = molecular target: T3, CAAX prenyl protease 2 (Saccharomyces cerevisiae S288c, UniProt Q03530); format: biochemical
# T3 sequence (Q03530 whole entry): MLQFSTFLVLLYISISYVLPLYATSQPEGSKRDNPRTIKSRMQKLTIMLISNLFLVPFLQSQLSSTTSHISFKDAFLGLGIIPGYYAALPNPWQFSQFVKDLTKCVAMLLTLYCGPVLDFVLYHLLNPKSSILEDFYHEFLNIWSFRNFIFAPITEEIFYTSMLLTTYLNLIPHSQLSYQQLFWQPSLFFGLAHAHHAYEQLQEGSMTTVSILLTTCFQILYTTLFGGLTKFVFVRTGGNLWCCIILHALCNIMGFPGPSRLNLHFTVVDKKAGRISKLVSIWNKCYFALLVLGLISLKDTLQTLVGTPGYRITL
# CAAX prenyl protease 2 [11] = molecular target: T4, CAAX prenyl protease 2 (Homo sapiens, UniProt Q9Y256); experiment: human Rce1 protease inhibitors, dose response, biochemical, yeast membranes, quenched-peptide fluorescence, cherry-pick (AID 588849)
# T4 sequence (Q9Y256 whole entry): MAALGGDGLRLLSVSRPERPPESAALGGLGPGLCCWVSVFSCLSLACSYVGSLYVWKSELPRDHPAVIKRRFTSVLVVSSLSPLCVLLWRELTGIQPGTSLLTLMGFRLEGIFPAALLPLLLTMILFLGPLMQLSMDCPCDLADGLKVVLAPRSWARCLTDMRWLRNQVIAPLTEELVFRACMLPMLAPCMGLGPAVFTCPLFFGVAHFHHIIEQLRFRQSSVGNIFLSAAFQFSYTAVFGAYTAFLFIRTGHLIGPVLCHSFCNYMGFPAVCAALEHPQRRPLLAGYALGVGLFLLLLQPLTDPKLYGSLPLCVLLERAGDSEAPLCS
# [12] = molecular target: T5, DNA repair protein RAD52 homolog (Homo sapiens, UniProt P43351); format: functional, biochemical
# T5 sequence (P43351 whole entry): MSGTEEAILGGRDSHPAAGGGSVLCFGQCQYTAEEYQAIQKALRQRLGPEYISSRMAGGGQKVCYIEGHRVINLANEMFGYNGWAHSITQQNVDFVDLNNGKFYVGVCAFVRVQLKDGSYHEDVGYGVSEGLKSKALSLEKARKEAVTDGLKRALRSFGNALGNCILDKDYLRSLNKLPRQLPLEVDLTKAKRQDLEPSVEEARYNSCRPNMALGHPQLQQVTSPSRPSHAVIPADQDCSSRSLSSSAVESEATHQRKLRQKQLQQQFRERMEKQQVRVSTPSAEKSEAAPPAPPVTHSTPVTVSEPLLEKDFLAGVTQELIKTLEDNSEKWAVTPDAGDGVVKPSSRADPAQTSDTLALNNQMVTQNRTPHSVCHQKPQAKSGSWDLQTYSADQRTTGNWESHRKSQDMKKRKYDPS
# [13] = molecular target: T6, Histone-lysine N-methyltransferase NSD2 (Homo sapiens, UniProt O96028); format: biochemical
# T6 sequence (O96028 whole entry): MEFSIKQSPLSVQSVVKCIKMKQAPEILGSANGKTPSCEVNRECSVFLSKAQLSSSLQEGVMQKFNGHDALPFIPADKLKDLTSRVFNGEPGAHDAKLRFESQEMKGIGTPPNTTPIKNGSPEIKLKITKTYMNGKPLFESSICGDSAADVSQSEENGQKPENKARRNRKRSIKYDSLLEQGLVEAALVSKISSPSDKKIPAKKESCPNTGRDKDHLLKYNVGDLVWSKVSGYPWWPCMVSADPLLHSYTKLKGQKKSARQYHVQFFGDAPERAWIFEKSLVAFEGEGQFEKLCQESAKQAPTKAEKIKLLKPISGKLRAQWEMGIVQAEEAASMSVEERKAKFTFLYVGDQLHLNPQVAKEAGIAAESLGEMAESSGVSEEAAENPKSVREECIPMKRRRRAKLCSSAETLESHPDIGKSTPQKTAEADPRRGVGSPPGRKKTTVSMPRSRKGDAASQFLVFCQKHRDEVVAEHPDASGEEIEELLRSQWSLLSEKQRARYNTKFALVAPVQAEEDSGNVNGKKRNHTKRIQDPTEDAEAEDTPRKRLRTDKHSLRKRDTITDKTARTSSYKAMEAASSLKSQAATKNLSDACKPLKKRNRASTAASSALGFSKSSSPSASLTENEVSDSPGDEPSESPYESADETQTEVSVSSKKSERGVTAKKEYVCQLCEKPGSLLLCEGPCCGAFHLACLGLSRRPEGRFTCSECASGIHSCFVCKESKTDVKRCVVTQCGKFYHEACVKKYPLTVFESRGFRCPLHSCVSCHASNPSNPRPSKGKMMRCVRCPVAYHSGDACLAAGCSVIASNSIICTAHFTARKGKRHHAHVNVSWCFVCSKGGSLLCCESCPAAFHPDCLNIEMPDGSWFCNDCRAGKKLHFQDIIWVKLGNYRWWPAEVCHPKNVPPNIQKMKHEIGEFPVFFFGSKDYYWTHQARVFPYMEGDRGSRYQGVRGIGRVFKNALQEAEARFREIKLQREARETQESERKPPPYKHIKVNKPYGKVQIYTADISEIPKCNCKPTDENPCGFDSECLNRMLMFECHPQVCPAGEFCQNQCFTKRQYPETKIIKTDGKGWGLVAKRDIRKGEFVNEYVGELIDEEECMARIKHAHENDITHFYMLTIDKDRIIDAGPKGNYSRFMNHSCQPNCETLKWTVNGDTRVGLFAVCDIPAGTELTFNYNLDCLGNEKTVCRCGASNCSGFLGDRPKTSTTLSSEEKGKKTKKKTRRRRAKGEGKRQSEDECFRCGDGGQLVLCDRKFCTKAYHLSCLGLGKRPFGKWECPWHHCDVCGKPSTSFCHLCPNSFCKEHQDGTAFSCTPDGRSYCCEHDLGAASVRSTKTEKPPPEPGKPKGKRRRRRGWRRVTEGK
# [14] = molecular target: Heat shock protein HSP 90-alpha (Homo sapiens, UniProt P07900); format: functional, organism-based
# [15] = molecular target: T7, Rac GTPase-activating protein 1 (Homo sapiens, UniProt Q9H0H5); experiment: MgcRacGAP GTPase-activating activity inhibitors, confirmation, biochemical, ADP Hunter fluorescence, primary and confirmatory (AID 624330); format: functional
# T7 sequence (Q9H0H5 whole entry): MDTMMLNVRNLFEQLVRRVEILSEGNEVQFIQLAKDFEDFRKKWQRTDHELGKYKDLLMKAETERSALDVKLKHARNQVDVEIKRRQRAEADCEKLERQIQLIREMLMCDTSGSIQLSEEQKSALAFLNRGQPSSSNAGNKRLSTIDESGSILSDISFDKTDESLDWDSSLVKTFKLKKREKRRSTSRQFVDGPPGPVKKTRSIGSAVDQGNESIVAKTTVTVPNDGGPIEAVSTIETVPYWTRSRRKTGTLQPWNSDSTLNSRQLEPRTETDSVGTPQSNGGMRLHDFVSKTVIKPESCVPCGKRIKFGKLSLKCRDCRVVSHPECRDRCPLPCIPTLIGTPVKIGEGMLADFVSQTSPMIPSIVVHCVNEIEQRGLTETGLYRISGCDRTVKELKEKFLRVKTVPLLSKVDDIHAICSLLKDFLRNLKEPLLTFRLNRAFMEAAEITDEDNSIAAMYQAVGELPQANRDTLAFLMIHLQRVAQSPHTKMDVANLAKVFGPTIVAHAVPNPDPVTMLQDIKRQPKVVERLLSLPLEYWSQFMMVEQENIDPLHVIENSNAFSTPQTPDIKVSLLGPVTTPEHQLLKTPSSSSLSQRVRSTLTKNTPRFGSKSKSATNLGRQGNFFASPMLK
# Sequence of Melanin-concentrating hormone receptor 1 (Q99705 whole entry): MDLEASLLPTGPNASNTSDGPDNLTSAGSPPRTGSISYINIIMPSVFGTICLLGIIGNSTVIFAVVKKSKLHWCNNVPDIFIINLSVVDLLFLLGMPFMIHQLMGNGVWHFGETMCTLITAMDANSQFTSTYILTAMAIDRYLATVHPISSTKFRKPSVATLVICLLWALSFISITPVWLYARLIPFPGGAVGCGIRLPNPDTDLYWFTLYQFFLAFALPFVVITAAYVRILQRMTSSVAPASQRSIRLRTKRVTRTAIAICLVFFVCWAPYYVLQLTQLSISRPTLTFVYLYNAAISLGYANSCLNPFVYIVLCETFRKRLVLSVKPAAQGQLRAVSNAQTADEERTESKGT
# Sequence of Glucose-6-phosphate 1-dehydrogenase (P11413 whole entry): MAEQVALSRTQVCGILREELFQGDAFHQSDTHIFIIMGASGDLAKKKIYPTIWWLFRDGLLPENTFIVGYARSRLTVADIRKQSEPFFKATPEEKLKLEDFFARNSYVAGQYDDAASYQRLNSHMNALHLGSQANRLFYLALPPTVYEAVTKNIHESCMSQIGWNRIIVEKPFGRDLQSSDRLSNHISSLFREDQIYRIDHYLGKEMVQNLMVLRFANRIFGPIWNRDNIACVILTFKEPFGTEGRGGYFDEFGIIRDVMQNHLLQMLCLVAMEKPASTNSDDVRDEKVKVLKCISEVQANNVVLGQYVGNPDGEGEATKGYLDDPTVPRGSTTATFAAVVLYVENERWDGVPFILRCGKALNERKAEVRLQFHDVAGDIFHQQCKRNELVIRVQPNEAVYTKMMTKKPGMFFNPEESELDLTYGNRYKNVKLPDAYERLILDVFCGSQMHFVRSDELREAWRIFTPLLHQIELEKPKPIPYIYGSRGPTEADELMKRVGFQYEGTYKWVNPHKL
# Sequence of Protein Wnt-3a (P27467 whole entry): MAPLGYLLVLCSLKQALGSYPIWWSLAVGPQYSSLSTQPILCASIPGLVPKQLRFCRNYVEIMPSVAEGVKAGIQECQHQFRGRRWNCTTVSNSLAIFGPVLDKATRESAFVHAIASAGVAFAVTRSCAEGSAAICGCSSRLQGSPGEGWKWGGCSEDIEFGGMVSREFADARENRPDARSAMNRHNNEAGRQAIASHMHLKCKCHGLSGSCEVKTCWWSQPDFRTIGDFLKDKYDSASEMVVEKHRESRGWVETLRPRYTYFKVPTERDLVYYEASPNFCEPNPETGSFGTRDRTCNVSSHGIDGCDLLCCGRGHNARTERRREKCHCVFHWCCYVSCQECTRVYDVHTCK
smiles,measurement,setting,value
CN1CCN(CCC=C2c3ccccc3Sc3ccc(S(=O)(=O)N(C)C)cc32)CC1,IC50,Vero [1],> 25 µM (active)
same,CC50,Vero [2],19.7 µM (active)
COc1ccc(Oc2c(Cl)cnn(-c3nc4ccccc4c(=O)c4ccccc34)c2=O)cc1,IC50,[3],707 nM (active)
COc1ccc(Nc2nnc(SCC(=O)/C=C3/N(C)c4ccccc4C3(C)C)s2)cc1,IC50,Leucine aminopeptidase,21.1 µM (active)
same,CC50,[4],7.33 µM (active)
same,IC50,[5],1.64 µM (active)
same,IC50,[6],1.72 µM (active)
same,IC50,Protein skinhead-1,> 100 µM (inactive)
COc1cc(CN2CCN(CCCc3ccccc3)C(CCO)C2)cc(OC)c1O (stereo not drawn),IC50,[7],58.7 µM (inactive)
Cc1nnc(N/N=C/c2ccc(-c3ccccc3F)o2)n1N,IC50,[7],> 80 µM (inactive)
same,IC50,cells,22.3 µM (active)
COc1cc(Oc2c(Cl)cnn(Cc3cccc4ccccc34)c2=O)cc(OC)c1OC,IC50,[3],3220 nM (active)
O=C(Cn1cc(C(=O)c2ccco2)c2ccccc21)Nc1ccccc1F,IC50,[5],1.79 µM (active)
same,IC50,[6],1.33 µM (active)
same,AC50,[8],2.6 µM (active)
same,AC50,[9],4.67 µM (active)
same,IC50,Protein Wnt-3a,4.08 µM (active)
O=C(NC1CCCCC1)c1ccc2ccccc2c1O,IC50,Vero [1],11.3 µM (active)
COC(=O)c1nc(N)sc1-c1ccc(Cl)c(Cl)c1,AC50,CAAX prenyl protease 2 [10],21.3 µM (active)
same,AC50,CAAX prenyl protease 2 [11],11.6 µM (active)
Cc1ccc(/C=C2\SC(=S)N(CCC(=O)N3CCOCC3)C2=O)cc1,IC50,Vero [1],> 25 µM (active)
same,CC50,Vero [2],14.5 µM (active)
CCN(CC)CCCN(Cc1cc2cc3c(cc2[nH]c1=O)OCO3)C(=S)NCCCN(C)C,AC50,CAAX prenyl protease 2 [10],16.4 µM (active)
same,AC50,CAAX prenyl protease 2 [11],10.5 µM (active)
same,AC50,[12],5.22 µM (active)
same,AC50,[13],9.07 µM (active)
O=[S@]1Oc2ccccc2-c2ccccc21,AC50,[14],2.2 µM (active)
same,IC50,[15],76 µM (active)
